Reference: US8093299B2, “Methods of treating bowel disorders” (Amgen Inc., priority 2007, dated 2012)
Several values for one entry are separate records, joined by “and”; a condition that tells them apart may be missing. Identical values can stand only once. Entries after “also recorded” stand apart in the source; their conditions may differ. Values belong to the compound of their own block, whether it stands above or below them.

Columns and labels:
[1] = system: 5% DSS induced colitis in SJL/J mice; test: DSS-induced colitis in mice, histopathologic inflammation score of large intestine; type: in vivo, mouse
Description: Animals. Female SJL/J mice aged 8-10 weeks were used for this study, purchased from Jackson Laboratories (Bar Harbour, Me.). Female Spraque-Dawley rats (approximately 150-300 grams) were purchased from Charles River Laboratories Inc. (Wilmington, Mass.). Mdr1a−/− mice (FVB.129P2-Abcb1a^tm1BorN7), weight 20-21 g, 8 weeks at initiation of experiments, were housed and maintained (5 per cage) in the animal facility at Amgen Washington. All animals were cared for according to the standard protocols of the Amgen Institutional Animal Care and Use Committee.
Chemical reagents. Dextran sodium sulfate (DSS) with molecular mass 36-50 kDa was purchased from ICN Chemicals, Aurora, Ohio. The DSS solution was prepared as a 5% w/v solution in sterile water (Baxter Healthcare Corporation) and sterile filtered through a 0.45 μm filter before being added to drinking water. Water for the negative control groups was similarly filtered. FK506, (also known as Tacrolimus, active ingredient in Prograf®), chemical name [3S-[3R*[E(1S*,3S*,4S*)],4S*,5R*,8S*,9E,12R*,14R*,15S*,16R*,18S*,19S*,26aR*]]-5,6,8,11,12,13,14,15,16,17,18,19,24,25,26,26a-hexadecahydro-5,19-dihydroxy-3-[2-(4-hydroxy-3-methoxycyclohexyl)-1-methylethenyl]-14,16-dimethoxy-4,10,12,18-tetramethyl-8-(2-propenyl)-15,19-epoxy-3H-pyrodi[2,1-c][1,4]oxaazacyclotricosine-1,7,20,21(4H, 23H)-tetrone monohydrate, was used as a positive control for the inflammation treatment. Tacrolimus is a macrolide immunosuppressant produced by Streptomyces tsukubaensis. The solution of FK506 (Prograf®, Astellas) was prepared as follows: 0.1 mg/ml solution in phosphate buffered saline (PBS) was prepared by diluting 5 mg/ml stock solution. The animals were dosed with FK506 at 1 mg/kg in 200 μl of PBS.
Calcimimetic solutions (Compound A, 3-(2-chlorophenyl)-N-((1R)-1-(3-(methyloxy)phenyl)ethyl)-1-propanamine, Compound B, (1R)-N-((6-(methyloxy)-4′-(trifluoromethyl)-3-biphenylyl)methyl)-1-phenylethanamine, Compound C, N-(2-chloro-5-((((1R)-1-phenylethyl)amino)methyl)phenyl)-5-methyl-3-isoxazolecarboxamide, and Compound D, N-(2-chloro-5-((((1R)-1-phenylethyl)amino)methyl)phenyl)-2-pyridinecarboxamide) were formulated and dosed in free base equivalents at volumes determined by the pharmacologist. Formulation vehicle was 20% (w/v) Captisol (β-Cyclodextrin Sulfobutyl Ether Sodium Salt, Research Grade from CyDex, Inc.) in water with a final pH of 2.0-2.2 at room temperature, adjusted with HCl and NaOH as required. Final concentrations of DMSO never exceeded 0.1% (v/v).
DSS colitis in mice. All experiments were performed on groups of 8 to 10 SJL-J mice, housed in the same cage. For disease induction, mice were given a 5% DSS ad libitum as drinking water for 9 days.
Postmortem evaluation. Mice and rats were euthanized by CO2 asphyxiation. The large intestine were removed from the carcass, evaluated for gross lesions and three individual non-adjacent segments of proximal, middle and distal large intestine 2 centimeters long were immersed in the Zinc Formalin fix for 24 hours. At the end of 24 hours the sections were washed with tap water and put into 70% ethanol. Each section was then cut into three 3 mm pieces (9 pieces per animal), processed into paraffin blocks, and sections were cut in 5 μm sections and stained with hematoxylin and eosin.
Histopathologic changes of the proximal, middle, and distal small and large intestine was scored as a global assessment of inflammation based on inflammatory infiltrate, edema, mucosal erosions or ulcerations as described in Table 6.
For disease induction, treated mice were given 5% DSS in water ad libitum as drinking water for 9 days as described in Example 1 and were concurrently treated orally during that period with one of the treatments listed in Table 8.
FIG. 1 and Table 8 summarize the effect of the calcimimetic compound B on colonic inflammation in 5% DSS induced colitis. Animals were euthanized with carbon dioxide on day nine post treatment. […]

[2] = Absorption from the gut into the bloodstream
[3] = system: IP-10; test: Serum IP-10 in mdr1a-/- colitis study; type: in vivo, mouse
Description: (§1) All mice were necropsied on day 38 post initial inoculation. Mice were euthanized by CO2 asphyxiation. Blood was obtained by intracardiac puncture and collected in serum separator tubes. Serum was harvested and stored at −80° C. Colons were dissected below the cecum and just above the anus, and the contents of the lumen were removed. Sections of the proximal, middle, and distal colon regions were fixed in 10% neutral buffered formalin for histopathological analysis.
(§2) Serum clinical chemistry analysis was performed on the Olympus AU400 using standard tests and protocols. Calcium and phosphorus measurements were performed on undiluted serum for all samples. Serum cytokines and chemokines were assayed by Lincoplex mouse cytokine/chemokine muliplex immunoassasy (Millipore; Billerica, Mass.) per manufacturer instructions.
(§3) Results for serum analytes were expressed as the mean±standard error of the mean (SEM). A one-way ANOVA with Tukey's post test was performed using GraphPad Prism. A p-value of 0.05 was used in the calculation to determine whether there were significant differences between any two groups. Results for disease onset were expressed as a standard survival curve. A Log-Rank (Mantel-Cox) Test was performed using GraphPad Prism to determine significance. A p-value of 0.05 was used in the calculation to determine whether there were significant differences between any two groups. Results for clinical score and histology score were expressed as the mean±SEM. A Cochran-Mantel-Haenszel mean score test was performed using SAS software. A p-value of 0.05 was used in the calculation to determine whether there were significant differences between any two groups.

[4] = system: colitis in mdr1a-/- mice induced by H. bilis; test: Colitis in mdr1a-/- mice infected with Helicobacter bilis (clinical score, disease onset, histology); type: in vivo, mouse; settings: for Total LI score (Max = 12), individual animals / GI Inflammation LI DISTAL, individual animals / GI Inflammation LI MIDDLE, individual animals / GI Inflammation LI PROXIMAL, individual animals: listed as R-B; for GI Inflammation LI DISTAL, individual animals / GI Inflammation LI MIDDLE, individual animals / GI Inflammation LI PROXIMAL, individual animals: score 0-4; for disease onset compared to vehicle control group: Log-Rank test, p-value=0.04
[5] = Serum calcium and phosphorus in mdr1a-/- colitis study; type: in vivo, mouse; settings: day 38
Description: as §1, §2, §3

[6] = 30 mg/kg oral, 5% DSS 9 days, vs Captisol vehicle
[7] = 10 mg/kg oral, 5% DSS 9 days, vs Captisol vehicle, p<0.01
[8] = R-Compound B 10 and 3 mg/kg groups

absorption from the gut into the bloodstream [2]: not to be absorbed readily
SMILES: C[C@@H](NCc1ccc(Cl)c(NC(=O)c2ccccn2)c1)c1ccccc1 [Compound D, N-(2-chloro-5-((((1R)-1-phenylethyl)amino)methyl)phenyl)-2-pyridinecarboxamide]
inflammation scores in all parts of colon compared to vehicle (FIG. 2) ([1]; 30 mg/kg oral, 5% DSS): reduce inflammation scores | animals lacking inflammatory changes (colon normal) ([1]; 30 mg/kg oral, 5% DSS 9 days): Two out of eight | decrease in mean large intestine inflammatory score, combined [1, 6]: 48% | decrease in mean large intestine inflammatory score, distal [1, 6]: 68% | decrease in mean large intestine inflammatory score, middle [1, 6]: 29% | decrease in mean large intestine inflammatory score, proximal [1, 6]: 44%

SMILES: COc1ccc(CN[C@H](C)c2ccccc2)cc1-c1ccc(C(F)(F)F)cc1 [Compound B, (1R)-N-((6-(methyloxy)-4′-(trifluoromethyl)-3-biphenylyl)methyl)-1-phenylethanamine]
animals lacking inflammatory changes (colon normal) ([1]; 10 mg/kg oral, 5% DSS 9 days): Four out of ten | mean large intestine inflammatory score, combined segments [1, 7]: statistically significant decreased | mean large intestine inflammatory score, middle segment [1, 7]: statistically significant decreased | mean large intestine inflammatory score, distal segment ([1]; 10 mg/kg oral, 5% DSS 9 days, vs Captisol vehicle, p<0.05): statistically significant decreased | Animals with colonic inflammation/total animals ([1]; 5% DSS 9 days, SJL/J mice, oral, Compound B 10 mg/kg, FK 506 1 mg/kg): 6/10 | mean inflammatory score in combined colonic segments compared to FK 506 treatment ([1]; Compound B 10 mg/kg vs FK 506 1 mg/kg, oral, 5% DSS): statistically significant (p<0.05) decrease | difference in production of serum IP-10 vs vehicle control group ([3]; 10 mg/kg PO daily, p=0.06): approached significance | elevation of serum IP-10 ([3]; treatment groups vs vehicle treated animals): less elevation | Average LI score ([4]; 3 mg/kg PO daily, day 38): 1.6 | GI Inflammation LI DISTAL, Segment Mean ([4]; 3 mg/kg PO daily, day 38): 0.60 | GI Inflammation LI MIDDLE, Segment Mean ([4]; 3 mg/kg PO daily, day 38): 0.60 | GI Inflammation LI PROXIMAL, Segment Mean ([4]; 3 mg/kg PO daily, day 38): 0.40 | Total LI score (Max = 12), individual animals ([4]; 3 mg/kg PO daily, day 38): 0 (8×) and 8 (2×) | GI Inflammation LI DISTAL, individual animals ([4]; 3 mg/kg PO daily, day 38): 0 (8×) and 3 (2×) | GI Inflammation LI MIDDLE, individual animals ([4]; 3 mg/kg PO daily, day 38): 0 (8×) and 3 (2×) | GI Inflammation LI PROXIMAL, individual animals ([4]; 3 mg/kg PO daily, day 38): 0 (8×) and 2 (2×) | day on which an animal began showing clinical signs of colitis (disease onset) ([4]; 3 mg/kg PO daily, first and second animal, listed as R-Compound B): 17 days and 31 days | day on which animals began showing clinical symptoms (disease onset) ([4]; 10 mg/kg PO daily): 32 days | disease onset compared to vehicle control group ([4]; 10 mg/kg PO daily): significantly different | disease onset compared to vehicle control group ([4]; 10 mg/kg PO daily, listed as R-Compound B): statistically significant difference | Average LI score ([4]; 10 mg/kg PO daily, day 38): 0.9 | GI Inflammation LI DISTAL, Segment Mean ([4]; 10 mg/kg PO daily, day 38): 0.30 | GI Inflammation LI MIDDLE, Segment Mean ([4]; 10 mg/kg PO daily, day 38): 0.20 | GI Inflammation LI PROXIMAL, Segment Mean ([4]; 10 mg/kg PO daily, day 38): 0.40 | Total LI score (Max = 12), individual animals ([4]; 10 mg/kg PO daily, day 38): 2 and 0 (8×) and 7 | GI Inflammation LI DISTAL, individual animals ([4]; 10 mg/kg PO daily, day 38): 0 (9×) and 3 | GI Inflammation LI MIDDLE, individual animals ([4]; 10 mg/kg PO daily, day 38): 0 (9×) and 2 | GI Inflammation LI PROXIMAL, individual animals ([4]; 10 mg/kg PO daily, day 38): 2 (2×) and 0 (8×) | clinical scores compared to vehicle group ([4]; 10 mg/kg PO daily, final day (day 38), p<0.05): significantly lower clinical scores | anal inflammation score of animals showing clinical symptoms [4, 8]: none had an anal inflammation score above moderate | development of diarrhea [4, 8]: no animal developed diarrhea | number of animals with clinical symptoms of disease on the final day of the study ([4]; day 38, per treatment group (S-Compound B 10 mg/kg, n=5; R-Compound B 10 mg/kg and 3 mg/kg, n=10 each)): one | percentage of animals with colon pathology ([4]; each R-Compound B group (10 and 3 mg/kg)): 20% | overall effect on development, onset, incidence and severity of colitis ([4]; mdr1a-/- mice, 10 or 3 mg/kg PO daily, listed as R-Compound B): attenuates the development of colitis; also recorded: delayed the onset of colitis and reduced the severity of disease; also recorded: reduced the incidence and severity of disease; also recorded: inhibited the development and severity of colitis | animals with colitis / colon pathology by histology ([4]; per group: R-Compound B 10 and 3 mg/kg each, S-Compound B 10 mg/kg): 2 out of 10 | serum phosphorus compared to the S-Compound B treated group only ([5]; 3 mg/kg PO daily): significant elevation | serum calcium compared to CTLA4 and vehicle control groups ([5]; 10 mg/kg PO daily): significant calcium reductions | serum phosphorus levels compared to all control groups ([5]; 10 mg/kg PO daily): significantly elevated | serum calcium levels compared to uninfected controls ([5]; both R-Compound B groups (10 and 3 mg/kg PO daily)): significantly reduced

absorption from the gut into the bloodstream [2]: not to be absorbed readily
SMILES: Cc1cc(C(=O)Nc2cc(CN[C@H](C)c3ccccc3)ccc2Cl)no1 [Compound C, N-(2-chloro-5-((((1R)-1-phenylethyl)amino)methyl)phenyl)-5-methyl-3-isoxazolecarboxamide]
inflammation scores in all parts of colon compared to vehicle (FIG. 2) ([1]; 30 mg/kg oral, 5% DSS): reduce inflammation scores | decrease in mean large intestine inflammatory score, combined [1, 6]: 30% | decrease in mean large intestine inflammatory score, distal [1, 6]: 49% | decrease in mean large intestine inflammatory score, middle [1, 6]: 20% | decrease in mean large intestine inflammatory score, proximal [1, 6]: 15%
